The source of these data is publication PMC9537510, “Reduction of stress responses in honey bees by synthetic ligands targeting an allatostatin receptor” (Scientific Reports, 2022).

Where only a bound is given, the exact number is not on record here.

Holding throughout (format): cell-based
The target in assay [1] is T1, allatostatin A receptor (ASTA-R) (Apis mellifera, UniProt A0A7M7ILT1).
T1 construct: gene LOC413582; receptor expressed in transfected HEK293T cells (NCBI: XP_006560262.1 used for the model)
T1 sequence (A0A7M7ILT1 1-361): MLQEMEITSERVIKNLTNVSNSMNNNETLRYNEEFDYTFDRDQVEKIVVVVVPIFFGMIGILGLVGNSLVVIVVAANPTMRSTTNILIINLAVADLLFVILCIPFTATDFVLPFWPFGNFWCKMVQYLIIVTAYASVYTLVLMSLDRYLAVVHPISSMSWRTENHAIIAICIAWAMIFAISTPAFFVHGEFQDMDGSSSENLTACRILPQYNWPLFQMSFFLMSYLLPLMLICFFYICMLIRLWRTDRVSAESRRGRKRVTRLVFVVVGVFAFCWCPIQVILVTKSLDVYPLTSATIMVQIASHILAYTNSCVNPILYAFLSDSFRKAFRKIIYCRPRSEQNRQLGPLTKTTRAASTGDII
Briefly: competition binding with fluorescence-labeled ASTA on ASTA-R-transfected HEK cells.

In assay [2] the target is T1, allatostatin A receptor (ASTA-R). The assay can be described thus: competition binding with fluorescence-labeled ASTA on ASTA-R-transfected HEK cells; also cAMP antagonism.
Assay [3] shares this target. The assay can be described thus: reversal of ASTA inhibition of forskolin-induced cAMP in ASTA-R-expressing cells; also weak competition binding (IC50 > […]).

As to `O=C(CSCCCc1ccccc1)Nc1cc(C(F)(F)F)ccc1-n1cncn1` [B3, N-(2-(1H-1,2,4-triazol-1-yl)-5-(trifluoromethyl)phenyl)-2-((3-phenylpropyl)thio)acetamide], in assay [1], the IC50 (usually the concentration that gives 50% inhibition) is greater than 10 µM.
`Cc1ccc(-n2cncn2)c(NC(=O)CSCCc2ccccc2)c1` [B5, N-(5-methyl-2-(1H-1,2,4-triazol-1-yl)phenyl)-2-(phenethylthio)acetamide] yielded an IC50 in assay [2] greater than 10 µM.
On to `Cc1ccc(-n2cncn2)c(NC(=O)CSCCCc2ccccc2)c1` [B6, N-(5-methyl-2-(1H-1,2,4-triazol-1-yl)phenyl)-2-(phenypropylthio)acetamide], for which, in assay [3], the “reversal of ASTA inhibition of forskolin-induced cAMP in ASTA-R-expressing cells” value was “both B5 and B6 act as ASTA antagonists by interacting with ASTA-R”.
